Structures can show the parent of a compound that is named as a salt.

Here are results for three molecules from US20260248831A1, “NON-TUBERCULOSIS MYCOBACTERIA INFECTION TREATMENT” (AN2 Therapeutics, Inc., priority 2021, published 2026).

The subject of one series is NTM strains. In words: Checkerboard synergy testing, summary over all strains tested. It counts as cell-based, nontuberculous mycobacteria. The following applies: clarithromycin, ethambutol, rifabutin, amikacin, bedaquiline.
The next series concerns MAC strains. As to the kind of experiment: Checkerboard synergy testing, summary over the MAC strains tested. It counts as cell-based, Mycobacterium avium complex. The following applies: out of a total of 5 MAC strains tested.
In series [1] the test system is M. intracellulare 20-S-13. As to the kind of experiment: Checkerboard antibacterial synergy testing of EBO pairwise combinations. It counts as cell-based. The following applies: M. intracellulare 20-S-13, clarithromycin resistant strain. The protocol: Frozen stocks of the drugs were prepared at 5 or 2 mg/ml and frozen in aliquots at −20° C. On the day of the experiment the stocks were thawed and diluted to the appropriate concentration. Middlebrook 7H9 broth and agar, CA-MH agar and Middlebrook OADC were all purchased from Becton-Dickinson and Company (Sparks, MD).
M. avium 2285R (Verma et al. Microbiol (2019) 10: 693) and M intracellulare DNA000111 were obtained from Diane Ordway (Colorado State University, Fort Collins, CO). M. chimaera 20-S-05 and the macrolide/bedaquiline-resistant M. intracellulare 20-S-13 isolate were obtained from Barbara Brown-Elliott (Mycobacteria/Nocardia Research Laboratory, University of Texas Health Science Center, Tyler Tx). […]
The checkerboard methodology was used to test for synergy and antagonism using Middlebrook 7H9+5% OADC (Dubos et al. Am Rev Tuberc (1947) 56:334-45) as the microbiology growth media. […] Synergistic or antagonistic activity was determined using the sum of the fractional inhibitory concentration (ΣFIC) index. The FTC index is calculated as the sum of FTC A+FTC B, where FTC A is the MIC of drug A in the combination of drugs A and B divided by the MIC of drug A alone, plus the MIC of drug B in the combination of drugs A and B divided by the MIC of drug B alone. […]

For series [2] the following is noted: in vivo; cited from earlier work.

With `NC[C@H]1OB(O)c2c(OCCCO)cccc21` [EBO, epetraborole hydrochloride], the “Antagonism of EBO activity by second drug” value in the series on NTM strains is recorded as “not antagonized”.

Turning to `CC[C@@H](CO)NCCN[C@@H](CC)CO` [EMB, Ethambutol], the “Synergy/additivity with EBO, number of strains” value with MAC strains is “synergy was observed with 2 strains and additivity with an additional 2 strains”. The “Interaction between ethambutol and EBO (in words)” value in series [1] is on record as “indifference”.

For `NC[C@H]1OB(O)c2c(OCCCO)cccc21` [epetraborole, Epetraborole], in series [2], the “Course of hematological abnormalities” value is given as “return to baseline values after discontinuation of epetraborole”; the “RBC parameters (including hemoglobin, RBCs, and reticulocyte counts)” value is given as “Decreases in RBC parameters”.
